Reference: patent US9566277B2, “Methods of using phthalazinone ketone derivatives” (Jiangsu Hansoh Pharmaceutical Co., Ltd., priority 2010, dated 2017)

Assay: Pharmacokinetics assay in SD rats (LC/MS/MS plasma concentration)
Assay type: in vivo
Conditions: 15 mg/kg; for Vd/F / CL/F: both sexes, rat, plasma, oral gavage; for Vd/F: read-out: Apparent Distribution Volume Vz/F; for CL/F: read-out: Clearance CL/F (converted); for Apparent Distribution Volume Vz/F / Clearance CL/F: intravenous injection
Description: 24 Healthy adult SD rats, male and female in half, were purchased from SINO-BRITSH SIPPR/BK LAB. ANIMAL LTD., CO, Certificate No.: SCXK (Shanghai) 2003-0002.
The intragastrical administration group: the right amount of tested compounds were weighed and dissolved in 0.5 mL of DMSO, diluted with physiological saline to 10 mL and prepared to 1.5 mg/mL.
The intravenous injection administration group: the right amount of tested compounds were weighed and added into […].
After an overnight fast, 24 healthy adult SD rats, male and female in half, were administered intragastrically at a dose of 15.0 mg/kg and an administration volume of 10 mL/kg.
(§1) The intragastrical administration group: blood samples (0.2 mL) were taken from orbital sinus at pre administration and at 0.25 hour, 0.5 hour, 1.0 hour, 1.5 hours, 2.0 hours, 3.0 hours, 4.0 hours, 6.0 hours, 7.0 hours, 9.0 hours, 12.0 hours and 24.0 hours post administration, stored in heparinized tubes and centrifuged for 20 minutes at 3,500 rpm to separate plasma. The plasma samples were stored at −20° C. The rats were fed at 2 hours after administration.
as §1, with “intravenous injection” for “intragastrical”, “2 minutes, 15 minutes,” for “0.25 hour,”, “hour,” for “hour, 1.5 hours,”, “8.0” for “7.0 hours, 9.0”, “C.” for “C. The rats were fed at 2 hours after administration.”
20 μL of rat blank plasmas taken at various time points after administration were added with 50 μL of internal standard solution and […] of methanol and mixed for 3 minutes by a vortexer. The mixture was centrifuged for 10 minutes at 13,500 rpm. 20 μL of the supernatant was analyzed by LC-MS/MS. The main pharmacokinetic parameters were calculated by software DAS 2.0.

Structure (SMILES): O=C(c1cc(Cc2n[nH]c(=O)c3ccccc23)ccc1F)N1CCn2nc(C(F)(F)F)nc2C1 [Example 19, 4-[[4-fluoro-3-[2-(trifluoromethyl)-6,8-dihydro-5H-[1,2,4]triazolo[1,5-a]pyrazine-7-carbonyl]phenyl]methyl]-2H-phthalazin-1-one]
- Vd/F: 7.97 ± 5.38 L/kg
- CL/F: 57.5 mL/min/kg

Structure (SMILES): CCNC(=O)c1nc(C(F)(F)F)n2c1CN(C(=O)c1cc(Cc3n[nH]c(=O)c4ccccc34)ccc1F)CC2 [Example 7, N-ethyl-7-[2-fluoro-5-[(4-oxo-3H-phthalazin-1-yl)methyl]benzoyl]-3-(trifluoromethyl)-6,8-dihydro-5H-imidazo[1,5-a]pyrazine-1-carboxamide]
- Apparent Distribution Volume Vz/F: 0.64 ± 0.19 L/kg
- Clearance CL/F: 8.67 ± 4.83 mL/min/kg
- Vd/F: 103 ± 134 L/kg
- CL/F: 257 mL/min/kg

Structure (SMILES): CNC(=O)c1nc(C(F)(F)F)n2c1CN(C(=O)c1cc(Cc3n[nH]c(=O)c4ccccc34)ccc1F)CC2 [Example 13, 7-[2-fluoro-5-[(4-oxo-3H-phthalazin-1-yl)methyl]benzoyl]-N-methyl-3-(trifluoromethyl)-6,8-dihydro-5H-imidazo[1,5-a]pyrazine-1-carboxamide]
- Apparent Distribution Volume Vz/F: 4.70 ± 2.17 L/kg
- Clearance CL/F: 12 ± 7.5 mL/min/kg
- Vd/F: 49.9 ± 52.9 L/kg
- CL/F: 74.5 mL/min/kg
